Assay results reported in patent US20090018111A1, “Novel Antimicrobial Medicament” (priority 2004, published 2009).
Read-outs that look alike come from different tables or passages of the source.

Key:
E. coli ML1410 RP4 = experiment: microbe, parasite or virus in culture; type: cell-based, Escherichia coli; settings: Escherichia coli
Outline: (§1)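 Minimum inhibitory concentrations come from agar dilution in MHA, with single agents or combinations in twofold steps. Inocula: about 5 μl at about 10^6 CFU/ml. An FIC index of at most 1 marks a positive combination effect; above 1, negative.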

M. luteus ATCC9341 = experiment: Sensitivity test (agar dilution); type: cell-based, Micrococcus luteus; settings: Micrococcus luteus
Outline: as §1

S. maltophilia IID1275 = experiment: Sensitivity test (agar dilution); type: cell-based, Stenotrophomonas maltophilia; settings: Stenotrophomonas maltophilia, read-out: MIC
Outline: as §1

P. mirabiris GN2425 = experiment: Sensitivity test (agar dilution); type: cell-based, Proteus mirabilis; settings: Proteus mirabilis, read-out: MIC
Outline: as §1

C. freundii GN346 = experiment: Sensitivity test (agar dilution); type: cell-based, Citrobacter freundii; settings: Citrobacter freundii, read-out: MIC
Outline: as §1

P. aeruginosa TL-2667 = experiment: Sensitivity test (agar dilution); type: cell-based, Pseudomonas aeruginosa; settings: Pseudomonas aeruginosa, read-out: MIC
Outline: as §1

P. aeruginosa TL-2666 = experiment: Sensitivity test (agar dilution); type: cell-based, Pseudomonas aeruginosa; settings: Pseudomonas aeruginosa, read-out: MIC
Outline: as §1

M. catarrhalis ATCC25238 = experiment: Sensitivity test (agar dilution); type: cell-based, Moraxella catarrhalis; settings: Moraxella catarrhalis, read-out: MIC
Outline: as §1

M. catarrhalis ATCC8176 = experiment: Sensitivity test (agar dilution); type: cell-based, Moraxella catarrhalis; settings: Moraxella catarrhalis, read-out: MIC
Outline: as §1

E. faecalis ATCC19433 = experiment: Sensitivity test (agar dilution); type: cell-based, Enterococcus faecalis; settings: Enterococcus faecalis, read-out: MIC
Outline: as §1

K. pneumoniae ATCC10031 = experiment: Sensitivity test (agar dilution); type: cell-based, Klebsiella pneumoniae; settings: Klebsiella pneumoniae, read-out: MIC
Outline: as §1

B. subtilis ATCC6633 = experiment: Sensitivity test (agar dilution); type: cell-based, Bacillus subtilis; settings: Bacillus subtilis, read-out: MIC
Outline: as §1

E. aerogenes ATCC13048 = experiment: Sensitivity test (agar dilution); type: cell-based, Enterobacter aerogenes; settings: Klebsiella aerogenes, read-out: MIC
Outline: as §1

SMILES: C[C@@H](O)[C@H]1C(=O)N2C(C(=O)O)=C(S[C@@H]3CN[C@H](C(=O)N(C)C)C3)[C@H](C)[C@H]12 [MEPM, meropenem]
- MIC (E. coli ML1410 RP4; ML1410RP4, Concomitant (MEPM:SM = 1:1)): ≤ 0.016 µg/mL
- MIC (E. coli ML1410 RP4; ML1410RP4, Concomitant (MEPM:SM = 1:2)): ≤ 0.016 µg/mL
- MIC (E. coli ML1410 RP4; ML1410RP4, Concomitant (MEPM:SM = 1:4)): ≤ 0.016 µg/mL
- MIC (E. coli ML1410 RP4; ML1410RP4, Concomitant drug (MEPM:SM = 2:1)): ≤ 0.016 µg/mL
- MIC (E. coli ML1410 RP4; ML1410RP4, alone): 0.031 µg/mL
- MIC (M. luteus ATCC9341; ATCC9341): 0.125 µg/mL
- MIC (M. luteus ATCC9341; ATCC9341, Concomitant (MEPM:SM = 1:1), read-out: MIC): ≤ 0.016 µg/mL
- MIC (M. luteus ATCC9341; ATCC9341, Concomitant (MEPM:SM = 1:2), read-out: MIC): ≤ 0.016 µg/mL
- MIC (M. luteus ATCC9341; ATCC9341, Concomitant (MEPM:SM = 1:4), read-out: MIC): ≤ 0.016 µg/mL
- MIC (M. luteus ATCC9341; ATCC9341, Concomitant drug (MEPM:SM = 2:1), read-out: MIC): ≤ 0.016 µg/mL
- MIC (S. maltophilia IID1275; IID1275, Concomitant (MEPM:SM = 1:1)): > 32 µg/mL
- MIC (S. maltophilia IID1275; IID1275, Concomitant (MEPM:SM = 1:2)): > 32 µg/mL
- MIC (S. maltophilia IID1275; IID1275, Concomitant (MEPM:SM = 1:4)): > 32 µg/mL
- MIC (S. maltophilia IID1275; IID1275, Concomitant drug (MEPM:SM = 2:1)): > 32 µg/mL
- MIC (S. maltophilia IID1275; IID1275, alone): > 32 µg/mL
- MIC (P. mirabiris GN2425; GN2425, Concomitant (MEPM:SM = 1:1)): ≤ 0.016 µg/mL
- MIC (P. mirabiris GN2425; GN2425, Concomitant (MEPM:SM = 1:2)): 0.031 µg/mL
- MIC (P. mirabiris GN2425; GN2425, Concomitant (MEPM:SM = 1:4)): ≤ 0.016 µg/mL
- MIC (P. mirabiris GN2425; GN2425, Concomitant drug (MEPM:SM = 2:1)): 0.031 µg/mL
- MIC (P. mirabiris GN2425; GN2425, alone): 0.063 µg/mL
- MIC (C. freundii GN346; GN346, Concomitant (MEPM:SM = 1:1)): 0.031 µg/mL
- MIC (C. freundii GN346; GN346, Concomitant (MEPM:SM = 1:2)): 0.031 µg/mL
- MIC (C. freundii GN346; GN346, Concomitant (MEPM:SM = 1:4)): 0.031 µg/mL
- MIC (C. freundii GN346; GN346, Concomitant drug (MEPM:SM = 2:1)): 0.031 µg/mL
- MIC (C. freundii GN346; GN346, alone): 0.063 µg/mL
- MIC (P. aeruginosa TL-2667; TL2667, Concomitant (MEPM:SM = 1:1)): 4 µg/mL
- MIC (P. aeruginosa TL-2667; TL2667, Concomitant (MEPM:SM = 1:2)): 2 µg/mL
- MIC (P. aeruginosa TL-2667; TL2667, Concomitant (MEPM:SM = 1:4)): 2 µg/mL
- MIC (P. aeruginosa TL-2667; TL2667, Concomitant drug (MEPM:SM = 2:1)): 4 µg/mL
- MIC (P. aeruginosa TL-2667; TL2667, alone): 4 µg/mL
- MIC (P. aeruginosa TL-2666; TL2666, Concomitant (MEPM:SM = 1:1)): 1 µg/mL
- MIC (P. aeruginosa TL-2666; TL2666, Concomitant (MEPM:SM = 1:2)): 1 µg/mL
- MIC (P. aeruginosa TL-2666; TL2666, Concomitant (MEPM:SM = 1:4)): 1 µg/mL
- MIC (P. aeruginosa TL-2666; TL2666, Concomitant drug (MEPM:SM = 2:1)): 1 µg/mL
- MIC (P. aeruginosa TL-2666; TL2666, alone): 1 µg/mL
- MIC (M. catarrhalis ATCC25238; ATCC25238, Concomitant (MEPM:SM = 1:1)): ≤ 0.016 µg/mL
- MIC (M. catarrhalis ATCC25238; ATCC25238, Concomitant (MEPM:SM = 1:2)): ≤ 0.016 µg/mL
- MIC (M. catarrhalis ATCC25238; ATCC25238, Concomitant (MEPM:SM = 1:4)): ≤ 0.016 µg/mL
- MIC (M. catarrhalis ATCC25238; ATCC25238, Concomitant drug (MEPM:SM = 2:1)): ≤ 0.016 µg/mL
- MIC (M. catarrhalis ATCC25238; ATCC25238, alone): ≤ 0.016 µg/mL
- MIC (M. catarrhalis ATCC8176; ATCC8176, Concomitant (MEPM:SM = 1:1)): ≤ 0.016 µg/mL
- MIC (M. catarrhalis ATCC8176; ATCC8176, Concomitant (MEPM:SM = 1:2)): ≤ 0.016 µg/mL
- MIC (M. catarrhalis ATCC8176; ATCC8176, Concomitant (MEPM:SM = 1:4)): ≤ 0.016 µg/mL
- MIC (M. catarrhalis ATCC8176; ATCC8176, Concomitant drug (MEPM:SM = 2:1)): ≤ 0.016 µg/mL
- MIC (M. catarrhalis ATCC8176; ATCC8176, alone): ≤ 0.016 µg/mL
- MIC (E. faecalis ATCC19433; ATCC19433, Concomitant (MEPM:SM = 1:1)): 1 µg/mL
- MIC (E. faecalis ATCC19433; ATCC19433, Concomitant (MEPM:SM = 1:2)): 0.5 µg/mL
- MIC (E. faecalis ATCC19433; ATCC19433, Concomitant (MEPM:SM = 1:4)): 0.25 µg/mL
- MIC (E. faecalis ATCC19433; ATCC19433, Concomitant drug (MEPM:SM = 2:1)): 1 µg/mL
- MIC (E. faecalis ATCC19433; ATCC19433, alone): 4 µg/mL
- MIC (K. pneumoniae ATCC10031; ATCC10031, Concomitant (MEPM:SM = 1:1)): ≤ 0.016 µg/mL
- MIC (K. pneumoniae ATCC10031; ATCC10031, Concomitant (MEPM:SM = 1:2)): ≤ 0.016 µg/mL
- MIC (K. pneumoniae ATCC10031; ATCC10031, Concomitant (MEPM:SM = 1:4)): ≤ 0.016 µg/mL
- MIC (K. pneumoniae ATCC10031; ATCC10031, Concomitant drug (MEPM:SM = 2:1)): ≤ 0.016 µg/mL
- MIC (K. pneumoniae ATCC10031; ATCC10031, alone): ≤ 0.016 µg/mL
- MIC (B. subtilis ATCC6633; ATCC6633, Concomitant (MEPM:SM = 1:1)): ≤ 0.016 µg/mL
- MIC (B. subtilis ATCC6633; ATCC6633, Concomitant (MEPM:SM = 1:2)): ≤ 0.016 µg/mL
- MIC (B. subtilis ATCC6633; ATCC6633, Concomitant (MEPM:SM = 1:4)): ≤ 0.016 µg/mL
- MIC (B. subtilis ATCC6633; ATCC6633, Concomitant drug (MEPM:SM = 2:1)): ≤ 0.016 µg/mL
- MIC (B. subtilis ATCC6633; ATCC6633, alone): 0.063 µg/mL
- MIC (E. aerogenes ATCC13048; ATCC13048, Concomitant (MEPM:SM = 1:1)): ≤ 0.016 µg/mL
- MIC (E. aerogenes ATCC13048; ATCC13048, Concomitant (MEPM:SM = 1:2)): 0.031 µg/mL
- MIC (E. aerogenes ATCC13048; ATCC13048, Concomitant (MEPM:SM = 1:4)): 0.031 µg/mL
- MIC (E. aerogenes ATCC13048; ATCC13048, Concomitant drug (MEPM:SM = 2:1)): 0.031 µg/mL
- MIC (E. aerogenes ATCC13048; ATCC13048, alone): 0.063 µg/mL
